Laboratory results reported in ChEMBL document CHEMBL1201862, “PubChem BioAssay data set” (2004).
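Each compound was tested at five concentrations against cells in 96-well plates for 48 hours. GI50 marks 50% less growth.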 Activity calls are given as the source filed them. Rule as the data show it: active = GI50 up to about 1.1 µM and inactive = higher.

What was measured:
Test in all cases: growth of human tumour cells (NCI), 48 h
[1] = system: SF-295
[2] = system: RPMI-8226
[3] = system: Malme-3M
[4] = system: SF-268
[5] = system: OVCAR-4
[6] = system: MOLT-4
[7] = system: UACC-257
[8] = system: Hs-578T
[9] = system: RXF 393
[10] = system: A549
[11] = system: NCI-H226
[12] = system: HL-60
[13] = system: HCT-15
[14] = system: LOX IMVI
[15] = system: PC-3
[16] = system: COLO 205
[17] = system: 786-0
[18] = system: CAKI-1
[19] = system: SW-620

Row | Compound | GI50 [1] | GI50 [2] | GI50 [3] | GI50 [4] | GI50 [5] | GI50 [6] | GI50 [7] | GI50 [8] | GI50 [9] | GI50 [10] | GI50 [11] | GI50 [12] | GI50 [13] | GI50 [14] | GI50 [15] | GI50 [16] | GI50 [17] | GI50 [18] | GI50 [19]
1 | CC1(C)N=C(/C(C#N)=[N+](/[O-])C(=O)c2ccccc2)C(C)(C)N1O | > 100 µM (inactive) | > 100 µM (inactive) | > 100 µM (inactive) | > 100 µM (inactive) | > 100 µM (inactive) | > 100 µM (inactive) | > 100 µM (inactive) | > 100 µM (inactive) | > 100 µM (inactive) | > 100 µM (inactive) | > 100 µM (inactive) | > 100 µM (inactive) | > 100 µM | > 100 µM (inactive) | > 100 µM (inactive) | > 100 µM (inactive) | > 100 µM (inactive) | > 100 µM (inactive) | > 100 µM (inactive)
2 | O=C(O)c1nnsc1-c1ccc(-c2snnc2C(=O)O)cc1 | > 100 µM (inactive) | 29.4 µM (inactive) | 56.8 µM (inactive) | > 100 µM (inactive) | 29.6 µM (inactive) | 17.4 µM (inactive) | > 100 µM (inactive) | > 100 µM (inactive) | > 100 µM (inactive) | > 100 µM (inactive) | > 100 µM (inactive) | 37.7 µM (inactive) | 42 µM | 31.8 µM (inactive) | 85.9 µM (inactive) | > 100 µM (inactive) | 43.2 µM (inactive) | 58.7 µM (inactive) | 39.5 µM (inactive)
3 | Cc1ccc2c(ccc3c[n+]4ccccc4c(C)c32)c1.[O-][Cl+3]([O-])([O-])[O-] | 1.39 µM (inactive) | 4.15 µM (inactive) | 1.32 µM (inactive) | 1.29 µM (inactive) | 2.07 µM (inactive) | 7.91 µM (inactive) | 1.34 µM (inactive) | 3.05 µM (inactive) | 26.4 µM (inactive) | 0.373 µM (active) | 1.28 µM (inactive) | 11.7 µM (inactive) | > 100 µM | 11.7 µM (inactive) | 0.904 µM (active) | 1.32 µM (inactive) | 2.51 µM (inactive) | 0.297 µM (active) | 0.962 µM (active)
4 | O=C1OC(c2ccc([N+](=O)[O-])cc2)=N/C1=C\c1ccc(Cl)cc1 | > 100 µM (inactive) | > 100 µM (inactive) | > 100 µM (inactive) | > 100 µM (inactive) | > 100 µM (inactive) | > 100 µM (inactive) | > 100 µM (inactive) | > 100 µM (inactive) | 62.8 µM (inactive) | > 100 µM (inactive) | > 100 µM (inactive) | > 100 µM (inactive) | > 100 µM | > 100 µM (inactive) | > 100 µM (inactive) | > 100 µM (inactive) | > 100 µM (inactive) | > 100 µM (inactive) | > 100 µM (inactive)
5 | Nc1cc2c3c(cccc3c1)C(=O)N(c1ccc(OCCN3CCCCC3)cc1)C2=O | 16.9 µM (inactive) | 18.3 µM (inactive) | 14.5 µM (inactive) | 19.1 µM (inactive) | 17.1 µM (inactive) | 12.1 µM (inactive) | 16 µM (inactive) | 27.7 µM (inactive) | 16.7 µM (inactive) | 13.9 µM (inactive) | 18.6 µM (inactive) | 4.89 µM (inactive) | 12.7 µM | 14 µM (inactive) | 17.4 µM (inactive) | 13.4 µM (inactive) | 16.9 µM (inactive) | 17.8 µM (inactive) | 20.6 µM (inactive)
6 | C[C@H]1COC2=C1C(=O)C(=O)c1c2ccc2c1CCCC2(C)C [CRYPTOTANSHINONE] | 1.68 µM (inactive) | 3.31 µM (inactive) | 0.305 µM (active) | 1.9 µM (inactive) | 12.2 µM (inactive) | 4.24 µM (inactive) | 1.95 µM (inactive) | 2.29 µM (inactive) | 6.3 µM (inactive) | 1.05 µM (active) | 3.24 µM (inactive) | 2.39 µM (inactive) | 1.94 µM | 2.52 µM (inactive) | 4.93 µM (inactive) | 1.15 µM (inactive) | 3.42 µM (inactive) | 8.22 µM (inactive) | 1.73 µM (inactive)
7 | Cc1nn(-c2cc(Cl)ccc2[N+](=O)[O-])c(C)c1Cl | > 100 µM (inactive) | 87.7 µM (inactive) | > 100 µM (inactive) | > 100 µM (inactive) | > 100 µM (inactive) | 13.6 µM (inactive) | > 100 µM (inactive) | > 100 µM (inactive) | 2.72 µM (inactive) | 71.1 µM (inactive) | 65.8 µM (inactive) | 91.8 µM (inactive) | 40.6 µM | > 100 µM (inactive) | 51.2 µM (inactive) | > 100 µM (inactive) | > 100 µM (inactive) | 83.4 µM (inactive) | > 100 µM (inactive)
8 | COc1ccc(-n2c(C)nc3ccc(/N=C/c4ccccc4)cc3c2=O)cc1 | > 100 µM (inactive) | 51.2 µM (inactive) | > 100 µM (inactive) | > 100 µM (inactive) | > 100 µM (inactive) | > 100 µM (inactive) | > 100 µM (inactive) | > 100 µM (inactive) | > 100 µM (inactive) | – | > 100 µM (inactive) | > 100 µM (inactive) | > 100 µM | > 100 µM (inactive) | > 100 µM (inactive) | > 100 µM (inactive) | > 100 µM (inactive) | > 100 µM (inactive) | > 100 µM (inactive)
9 | C[n+]1ccccc1/C1=c2\cc/c([nH]2)=C(\c2cccc[n+]2C)C2=N/C(=C(/c3cccc[n+]3C)C3C=CC(N3)/C(c3cccc[n+]3C)=C3/C=CC1=N3)C=C2 | > 100 µM (inactive) | 56.1 µM (inactive) | > 100 µM (inactive) | > 100 µM (inactive) | > 100 µM (inactive) | 58.1 µM (inactive) | > 100 µM (inactive) | > 100 µM (inactive) | > 100 µM (inactive) | > 100 µM (inactive) | > 100 µM (inactive) | > 100 µM (inactive) | > 100 µM | > 100 µM (inactive) | > 100 µM (inactive) | 75.2 µM (inactive) | > 100 µM (inactive) | > 100 µM (inactive) | 73.3 µM (inactive)
10 | COc1cc2c(cc1O)CCN(C)[C@H]2Cc1ccc(Oc2c(O)c(OC)cc3c2C[C@H]2c4c(c(OC)c(OC)c(OC)c4-3)CCN2C)cc1 [THALIFABERIDINE] | 5.79 µM (inactive) | 1.51 µM (inactive) | 7.85 µM (inactive) | 5.66 µM (inactive) | 2.3 µM (inactive) | 3 µM (inactive) | 7.01 µM (inactive) | 5.3 µM (inactive) | 1.75 µM (inactive) | 4.94 µM (inactive) | 7.46 µM (inactive) | 4.24 µM (inactive) | 4.43 µM | 1.72 µM (inactive) | 4.31 µM (inactive) | 7.08 µM (inactive) | 4.53 µM (inactive) | 5.06 µM (inactive) | 4.71 µM (inactive)
11 | COc1cc2c3c4c1OCc1c5c(cc(c1-4)CC3[N+](C)(C)CC2)OCO5 (configuration not stated) | 6.05 µM (inactive) | > 100 µM (inactive) | 60.5 µM (inactive) | 2.79 µM (inactive) | > 100 µM (inactive) | > 100 µM (inactive) | > 100 µM (inactive) | 4.18 µM (inactive) | > 100 µM (inactive) | > 100 µM (inactive) | 32.3 µM (inactive) | > 100 µM (inactive) | > 100 µM | > 100 µM (inactive) | > 100 µM (inactive) | > 100 µM (inactive) | 4.33 µM (inactive) | > 100 µM (inactive) | > 100 µM (inactive)
12 | COc1ccc(C(=O)/C=C2\C(=O)Nc3ccc(Br)cc32)cc1 | 16.2 µM (inactive) | 1.72 µM (inactive) | 8.22 µM (inactive) | 16.4 µM (inactive) | 16.5 µM (inactive) | 2.41 µM (inactive) | 11.3 µM (inactive) | 13.8 µM (inactive) | 2.29 µM (inactive) | 15.3 µM (inactive) | 11.1 µM (inactive) | 1.99 µM (inactive) | 2.13 µM | 1.99 µM (inactive) | 6.68 µM (inactive) | 2.3 µM (inactive) | 1.97 µM (inactive) | 8.63 µM (inactive) | 2.32 µM (inactive)
13 | CC(=O)Oc1ccc2c(c1)c1c(=O)oc(C)nc1n2Cc1ccccc1 | 43.6 µM (inactive) | 56.4 µM (inactive) | 73.6 µM (inactive) | 17.6 µM (inactive) | > 75.7 µM (inactive) | 71.8 µM (inactive) | > 100 µM (inactive) | > 73.6 µM (inactive) | 14.8 µM (inactive) | 67.5 µM (inactive) | 24.8 µM (inactive) | 57.7 µM (inactive) | 26.7 µM | 32 µM (inactive) | 41.8 µM (inactive) | 24.6 µM (inactive) | 39.6 µM (inactive) | 4.99 µM (inactive) | 57.9 µM (inactive)
14 | Clc1cc2ncn(C3CCCCO3)c2cc1Cl (configuration not stated) | 70.5 µM (inactive) | 66.8 µM (inactive) | > 100 µM (inactive) | 34.6 µM (inactive) | 48.9 µM (inactive) | 33.9 µM (inactive) | – | 23.6 µM (inactive) | 44.7 µM (inactive) | 47.8 µM (inactive) | 17.5 µM (inactive) | 30.1 µM (inactive) | 63.2 µM | 32.5 µM (inactive) | 34.6 µM (inactive) | 77.3 µM (inactive) | 71.6 µM (inactive) | 39.4 µM (inactive) | 53.7 µM (inactive)
15 | C=C1N(S(=O)(=O)c2ccc(C)cc2)C(=O)OCC12CCCC2 | > 100 µM (inactive) | > 100 µM (inactive) | > 100 µM (inactive) | – | 72.6 µM (inactive) | 77.4 µM (inactive) | 80.4 µM (inactive) | 32.5 µM (inactive) | > 100 µM (inactive) | > 100 µM (inactive) | > 100 µM (inactive) | 40.3 µM (inactive) | 94 µM | > 100 µM (inactive) | 34.6 µM (inactive) | 72.8 µM (inactive) | > 100 µM (inactive) | 94.4 µM (inactive) | > 100 µM (inactive)
